Test results: US20070254881A1, “Pyrazole Derivative” (DAIICHI PHARMACEUTICAL CO., LTD., priority 2004, published 2007)

Key:
[1] = test system: collagen-induced platelet aggregation; assay: Platelet aggregation suppressing effect (collagen-induced aggregation in platelet rich plasma); assay type: cell-based; conditions: human PRP, 37° C., collagen as inducer, read-out: Inhibitory effect of collagen-induced platelet aggregation IC50
Description: Human blood was collected using 3.13% sodium citrate in a volume 1/10 of the blood volume, as an anticoagulant. The collected blood was centrifuged at 180 g for 10 minutes to separate platelet rich plasma (PRP) from the blood. After collecting the PRP fraction in the upper layer, the lower layer was further centrifuged at 1600 g for 10 minutes to fractionate platelet poor plasma (PPP) in the upper layer. One μl of a solution of a compound obtained in the Examples was added to 200 μl of PRP, and the mixture was allowed to stand at 37° C. for 2 minutes. Subsequently, 2 μl of collagen was added thereto, so as to induce platelet aggregation. The platelet aggregation rate was measured using PAM-12C(SSR Engineering, Inc.).

[2] = biological target: T1, Cyclooxygenase-1 (COX-1) (Ovis aries, UniProt P05979); assay: COX-1 inhibition, COX Inhibitor Screening Assay Kit (PGF2α production, ELISA); assay type: biochemical; conditions: compound 50 μM
T1 construct: purchased Cayman Chemical Company 560101
T1 sequence (P05979 25-600): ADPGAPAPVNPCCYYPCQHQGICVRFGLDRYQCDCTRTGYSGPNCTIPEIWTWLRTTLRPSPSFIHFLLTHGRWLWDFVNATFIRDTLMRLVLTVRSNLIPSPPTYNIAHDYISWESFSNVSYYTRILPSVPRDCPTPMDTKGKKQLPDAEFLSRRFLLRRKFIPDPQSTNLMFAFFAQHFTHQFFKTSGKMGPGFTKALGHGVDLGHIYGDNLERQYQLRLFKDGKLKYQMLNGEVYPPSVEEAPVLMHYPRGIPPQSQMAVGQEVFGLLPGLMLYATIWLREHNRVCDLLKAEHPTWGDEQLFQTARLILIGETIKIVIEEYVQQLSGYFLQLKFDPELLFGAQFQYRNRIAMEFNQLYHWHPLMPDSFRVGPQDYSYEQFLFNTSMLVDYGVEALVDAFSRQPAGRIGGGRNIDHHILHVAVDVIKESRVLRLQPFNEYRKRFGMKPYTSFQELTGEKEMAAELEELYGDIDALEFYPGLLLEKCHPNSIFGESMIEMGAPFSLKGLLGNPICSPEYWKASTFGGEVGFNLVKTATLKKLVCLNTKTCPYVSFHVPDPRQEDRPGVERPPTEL
Description: For the measurement of the inhibitory activity of the compounds obtained in the Examples against COX-1 and COX-2, a COX Inhibitor Screening Assay Kit manufactured by Cayman Chemical Company (Catalog Nos. 560101 and 560121) was used.
Before starting the measurement, a reaction buffer, heme, arachidonic acid, SnCl2, EIA buffer, a washing buffer, prostaglandin (PG)-screening EIA standard solution, PG-screening acetylcholinesterase (AchE), a tracer […], and PG-screening EIA antiserum were provided.
A reaction solution containing a compound of the Examples (50 μM) and COX-1, or a reaction solution containing a compound of the Examples (300 μM) and COX-2 was allowed to stand at 37° C. for 10 minutes, then 10 μl of arachidonic acid was added thereto, and the resultant mixture was allowed to stand at 37° C. for 2 minutes. After the reaction, 50 μl of 1 N hydrochloric acid was added to the reaction mixture to stop the reaction, and 100 μl of a SnCl2 solution was added thereto. The resultant mixture was allowed to stand at room temperature for 5 minutes.
50 μl of antiserum (rabbit anti-PGF2α antibody) was added to each well of a 96-well plate coated with mouse anti-rabbit IgG. Then, 50 μl of a solution prepared by diluting the reaction solution for PGF2α production to 2000-folds, and 50 μl of an AchE tracer were added sequentially to the wells, and the plate was kept at room temperature for 18 hours. Each well washed 5 times with the washing buffer to remove excessive AchE tracer, and then 200 μl of Ellman reagent was added to each well. The plate was kept in the dark room for 60 minutes, and then, absorbance at 405 nm was measured.
A standard curve was produced using a PG-screening EIA standard solution, and the amount of PGF2α production was determined from the absorbance obtained as described above. The COX-1 inhibition rate at 50 μM of the compound of the Examples, and the COX-2 inhibition rate at 300 μM of the compound of the Examples were calculated.

SMILES | IC50 [1] | COX-1 inhibitory action at 50 μM (% inhibition) [2]
COC1CCN(C(=O)c2cc(-c3cnc(C)cn3)n(-c3ccc(C)nc3)n2)CC1 [Example 3, 1-[5-(5-Methyl-2-pyrazinyl)-1-(6-methyl-3-pyridyl)-1H-pyrazole-3-carbonyl]-4-methoxypiperidine] | 220 nM | −21.2 % inhibition
COc1ccc(-n2nc(C(=O)N3CCC(OC)CC3)cc2-c2cscn2)cn1 [Example 128, 1-[1-(6-Methoxy-3-pyridyl)-5-(thiazol-4-yl)-1H-pyrazole-3-carbonyl]-4-methoxypiperidine] | 100 nM | –
COc1ccc(-n2nc(C(=O)N3CCCC3C)cc2-c2ccccn2)nn1 (stereo not shown) [Example 27, 1-[1-(6-Methoxy-3-pyridazinyl)-5-(2-pyridyl)-1H-pyrazole-3-carbonyl]-2-methylpyrrolidine] | 91 nM | −10.2 % inhibition
COc1ccc(-c2cc(C(=O)N3CCOCC3)nn2-c2ccc(C)nc2)nc1 [Example 1, 4-[5-(5-Methoxy-2-pyridyl)-1-(6-methyl-3-pyridyl)-1H-pyrazole-3-carbonyl]morpholine] | 210 nM | −13.3 % inhibition
Cc1ccc(-n2nc(C(=O)N3CCC(F)(F)CC3)cc2-c2cnc(C)cn2)cn1 [Example 2, 1-[5-(5-Methyl-2-pyrazinyl)-1-(6-methyl-3-pyridyl)-1H-pyrazole-3-carbonyl]-4,4-difluoropiperidine] | 130 nM | −1.2 % inhibition
COc1ccc(-n2nc(C(=O)N3CCC(OC)CC3)cc2-c2ccc[nH]2)nn1 [Example 14, 1-[1-(6-Methoxy-3-pyridazinyl)-5-(1H-pyrrol-2-yl)-1H-pyrazole-3-carbonyl]-4-methoxypiperidine] | 120 nM | 39.3 % inhibition
COc1ccc(-n2nc(C(=O)N3CCCCN3)cc2-c2cscn2)cn1 [Example 138, 1-[1-(6-Methoxy-3-pyridyl)-5-(thiazol-4-yl)-1H-pyrazole-3-carbonyl]hexahydropyridazine] | 41 nM | –
COc1ccc(-n2nc(C(=O)N3CCOC[C@@H]3C)cc2-c2ccccn2)nn1 [Example 105, (+)(3S)-4-[1-(6-Methoxypyridazin-3-yl)-5-(2-pyridyl)-1H-pyrazole-3-carbonyl]-3-methylmorpholine] | 440 nM | −9.6 % inhibition
Cc1ccc(-n2nc(C(=O)N3CCOCC3)cc2-c2ccn(C)c2)cn1 [Example 16, 4-[1-(6-Methyl-3-pyridyl)-5-(1-methyl-1H-pyrrol-3-yl)-1H-pyrazole-3-carbonyl]morpholine] | 120 nM | −5.2 % inhibition
COc1ccc(-n2nc(C(=O)N3CCCOCC3)cc2-c2cscn2)nn1 [Example 137, 4-[1-(6-Methoxy-3-pyridazinyl)-5-(thiazol-4-yl)-1H-pyrazole-3-carbonyl]-1,4-oxazepane] | 80 nM | –
COc1ccc(-n2nc(C(=O)N3CCN(C)CC3)cc2-c2cscn2)cn1 [Example 127, 1-[1-(6-Methoxy-3-pyridyl)-5-(thiazol-4-yl)-1H-pyrazole-3-carbonyl]-4-methylpiperazine] | 230 nM | −21.2 % inhibition
COc1ccc(-n2nc(C(=O)N3CCC(OC)CC3)cc2-c2cnn(C)c2)cn1 [Example 119, 1-[1-(6-Methoxy-3-pyridyl)-5-(1-methyl-1H-pyrazol-4-yl)-1H-pyrazole-3-carbonyl]-4-methoxypiperidine] | 160 nM | 13.0 % inhibition
COc1ccc(-n2nc(C(=O)N3CCC(OC)CC3)cc2-c2ccccn2)cn1 [Example 20, 1-[1-(6-Methoxy-3-pyridyl)-5-(2-pyridyl)-1H-pyrazole-3-carbonyl]-4-methoxypiperidine] | 120 nM | −17.0 % inhibition
COc1ccc(-n2nc(C(=O)N3CCN(C)C(=O)C3)cc2-n2cccc2)cn1 [Example 10, 1-[1-(6-Methoxy-3-pyridyl)-5-(1H-pyrrol-1-yl)-1H-pyrazole-3-carbonyl]-4-methyl-3-oxopiperazine] | 190 nM | 54.1 % inhibition
COc1ccc(-n2nc(C(=O)N3CCC(F)(F)CC3)cc2-c2cscn2)nn1 [Example 133, 1-[1-(6-Methoxy-3-pyridazinyl)-5-(thiazol-4-yl)-1H-pyrazole-3-carbonyl]-4,4-difluoropiperidine] | 80 nM | –
COc1ccc(-n2nc(C(=O)N3CCCOCC3)cc2-c2cscn2)cn1 [Example 139, 4-[1-(6-Methoxy-3-pyridyl)-5-(thiazol-4-yl)-1H-pyrazole-3-carbonyl]-1,4-oxazepane] | 41 nM | –
COc1ccc(-n2nc(C(=O)N3CCN(C)CC3)cc2-c2cscn2)nn1 [Example 131, 1-[1-(6-Methoxy-3-pyridazinyl)-5-(thiazol-4-yl)-1H-pyrazole-3-carbonyl]-4-methylpiperazine] | 320 nM | –
COc1ccc(-n2nc(C(=O)N3CCN(C)C(=O)C3)cc2-c2cnn(C)c2)cn1 [Example 121, 1-[1-(6-Methoxy-3-pyridyl)-5-(1-methyl-1H-pyrazol-4-yl)-1H-pyrazole-3-carbonyl]-4-methyl-3-oxopiperazine] | 710 nM | −0.7 % inhibition
COc1ccc(-n2nc(C(=O)N3CCOC[C@H]3C)cc2-c2ccccn2)nn1 [Example 107, (−)(3R)-4-[1-(6-Methoxypyridazin-3-yl)-5-(2-pyridyl)-1H-pyrazole-3-carbonyl]-3-methylmorpholine] | 430 nM | −3.9 % inhibition
COc1ccc(-n2nc(C(=O)N3CCCCN3)cc2-c2ccccn2)nn1 [Example 5, 1-[1-(6-Methoxy-3-pyridazinyl)-5-(2-pyridyl)-1H-pyrazole-3-carbonyl]hexahydropyridazine] | 210 nM | −35.9 % inhibition
COc1ccc(-n2nc(C(=O)N3CCCOCC3)cc2-c2cnn(C)c2)cn1 [Example 136, 4-[1-(6-Methoxy-3-pyridyl)-5-(1-methyl-1H-pyrazol-4-yl)-1H-pyrazole-3-carbonyl]-1,4-oxazepane] | 360 nM | –
COc1ccc(-n2nc(C(=O)N3CCC(OC)CC3)cc2-c2cscn2)nn1 [Example 132, 1-[1-(6-Methoxy-3-pyridazinyl)-5-(thiazol-4-yl)-1H-pyrazole-3-carbonyl]-4-methoxypiperidine] | 190 nM | –
COc1ccc(-n2nc(C(=O)N3CCC[C@H]3CF)cc2-c2ccccn2)nn1 [Example 31, (2S)-1-[1-(6-Methoxy-3-pyridazinyl)-5-(2-pyridyl)-1H-pyrazole-3-carbonyl]-2-fluoromethylpyrrolidine] | 180 nM | −10.5 % inhibition
COc1ccc(-n2nc(C(=O)N3CCCCN3)cc2-c2cnn(C)c2)cn1 [Example 134, 1-[1-(6-Methoxy-3-pyridyl)-5 (1-methyl-1H-pyrazol-4-yl)-1H-pyrazole-3-carbonyl]hexahydropyridazine] | 40 nM | –
COc1ccc(-n2nc(C(=O)N3CCCCC3C(N)=O)cc2-c2cscn2)cn1 (stereo not shown) [Example 129, 1-[1-(6-Methoxy-3-pyridyl)-5-(thiazol-4-yl)-1H-pyrazole-3-carbonyl]-2-carbamoylpiperidine] | 260 nM | –
